Measurements: patent publication US20090111860A1, “SULFONAMIDE COMPOUNDS USEFUL AS ADG RECEPTOR MODULATORS” (ASTRAZENECA AB, priority 2006, published 2009)

Target: T1, EDG-1/S1P1 receptor (Homo sapiens, UniProt P21453)
T1 construct: expressed in transfected cells; host or cells: human osteogenic sarcoma U2OS cells (EDG-1 Transfluor U2OS WT Clone #37)
Test: In vitro cell based receptor activation assay - Transfluor assay
Settings: EDG-1 Transfluor U2OS WT Clone #37 cells; beta-arrestin GFP relocalization; 375 nM or 750 nM S1P ligand
From the text: A. In Vitro Cell Based Receptor Activation Assay-Transfluor Assay
This cell-based assay was designed to assess the ability of small molecule antagonists to inhibit activation of the GPCR S1P1 in the presence of its cognate ligand S1P. The assay used technology initially developed by Norak Biosciences (Xsira Pharmaceutical) and presently owned by Molecular Devices. A human osteogenic sarcoma (U2OS) cell line overexpressing the EDG-1/S1P1) receptor as well as a beta-arrestin/green fluorescent protein (GFP) construct hereafter termed EDG-1 Transfluor U2OS WT Clone #37 was employed.
Using a high content screening approach (Cellomics Arrayscan), receptor activity was measured by assessment of the relocalization of beta-arrestin GFP in response to stimulation of EDG-1 by S1P. Specifically, EDG-1 Transfluor U2OS WT Clone #37 cells were plated at a density of 6250 cells in 40 uL medium per well in 384 well plastic bottomed microtiter plates (BD Falcon) and incubated overnight at 37° C./5% CO2. Prior to screening, compounds were dissolved in 100% dimethyl sulfoxide (DMSO) to a final stock concentration of 10 mM. […] Plates were then sealed and analysed on the Cellomics Arrayscan using the GPCR signalling algorithm. EC50 values were then calculated using IDBS ActivityBase software.

T1 sequence (P21453 whole entry): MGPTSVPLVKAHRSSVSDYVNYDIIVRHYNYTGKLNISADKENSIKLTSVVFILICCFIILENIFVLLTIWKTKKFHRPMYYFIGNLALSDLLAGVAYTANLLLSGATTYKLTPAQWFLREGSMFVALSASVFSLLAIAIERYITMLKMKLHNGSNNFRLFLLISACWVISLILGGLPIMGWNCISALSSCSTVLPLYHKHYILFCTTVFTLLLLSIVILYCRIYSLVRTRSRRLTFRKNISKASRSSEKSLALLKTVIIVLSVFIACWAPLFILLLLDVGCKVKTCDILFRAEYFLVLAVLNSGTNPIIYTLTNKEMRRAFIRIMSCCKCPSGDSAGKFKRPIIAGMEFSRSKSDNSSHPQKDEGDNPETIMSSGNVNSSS

EC50: 680 nM
SMILES: CCc1c(C(C)NS(=O)(=O)c2ccc(Cl)cc2)n[nH]c1C (stereo not shown) [Example 1]
